# Measured values from patent US11407725B2 (The Board of Trustees of the University of Illinois, priority 2018, dated 2022).
# T1: ALDH1A1 (Homo sapiens, UniProt P00352)
# T1 construct: made in house
# T1 sequence (P00352 1-501): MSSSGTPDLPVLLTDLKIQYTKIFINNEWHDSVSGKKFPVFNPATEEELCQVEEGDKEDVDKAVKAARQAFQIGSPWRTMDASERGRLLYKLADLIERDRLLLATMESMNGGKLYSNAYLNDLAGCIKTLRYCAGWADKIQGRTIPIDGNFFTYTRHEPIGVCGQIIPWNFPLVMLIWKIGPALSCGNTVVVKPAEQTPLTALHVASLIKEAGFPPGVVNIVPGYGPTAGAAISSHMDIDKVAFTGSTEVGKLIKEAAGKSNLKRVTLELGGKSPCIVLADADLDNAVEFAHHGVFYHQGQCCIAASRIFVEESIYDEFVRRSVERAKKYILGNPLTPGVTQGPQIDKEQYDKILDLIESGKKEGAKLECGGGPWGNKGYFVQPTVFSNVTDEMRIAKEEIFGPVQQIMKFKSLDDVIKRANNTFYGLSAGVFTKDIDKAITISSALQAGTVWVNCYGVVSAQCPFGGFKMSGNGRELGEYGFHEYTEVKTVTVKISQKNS
# T2: ALDH1A3 (Homo sapiens, UniProt P47895)
# T2 construct: made in house
# T2 sequence (P47895 1-512): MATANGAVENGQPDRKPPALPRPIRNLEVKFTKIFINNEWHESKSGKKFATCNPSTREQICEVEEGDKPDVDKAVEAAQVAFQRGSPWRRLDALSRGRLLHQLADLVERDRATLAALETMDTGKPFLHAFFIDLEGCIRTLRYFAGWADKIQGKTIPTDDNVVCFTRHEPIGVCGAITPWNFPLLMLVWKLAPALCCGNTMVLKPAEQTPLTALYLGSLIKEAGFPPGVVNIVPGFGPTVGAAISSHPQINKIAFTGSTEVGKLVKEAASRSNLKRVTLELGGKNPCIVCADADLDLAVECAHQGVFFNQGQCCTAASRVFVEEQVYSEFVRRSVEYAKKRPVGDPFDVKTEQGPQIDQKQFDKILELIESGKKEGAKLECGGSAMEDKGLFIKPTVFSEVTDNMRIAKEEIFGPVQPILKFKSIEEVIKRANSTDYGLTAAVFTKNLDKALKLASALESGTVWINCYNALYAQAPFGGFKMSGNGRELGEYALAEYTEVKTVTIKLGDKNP
# B1: ALDH1A1 (Homo sapiens) (protein)
# chain: MSSSGTPDLPVLLTDLKIQYTKIFINNEWHDSVSGKKFPVFNPATEEELCQVEEGDKEDVDKAVKAARQAFQIGSPWRTMDASERGRLLYKLADLIERDRLLLATMESMNGGKLYSNAYLNDLAGCIKTLRYCAGWADKIQGRTIPIDGNFFTYTRHEPIGVCGQIIPWNFPLVMLIWKIGPALSCGNTVVVKPAEQTPLTALHVASLIKEAGFPPGVVNIVPGYGPTAGAAISSHMDIDKVAFTGSTEVGKLIKEAAGKSNLKRVTLELGGKSPCIVLADADLDNAVEFAHHGVFYHQGQCCIAASRIFVEESIYDEFVRRSVERAKKYILGNPLTPGVTQGPQIDKEQYDKILDLIESGKKEGAKLECGGGPWGNKGYFVQPTVFSNVTDEMRIAKEEIFGPVQQIMKFKSLDDVIKRANNTFYGLSAGVFTKDIDKAITISSALQAGTVWVNCYGVVSAQCPFGGFKMSGNGRELGEYGFHEYTEVKTVTVKISQKNS
# notes: made in house
# Key:
# ALDH isoforms = experiment: BAAA isoform selectivity assay; format: biochemical, human; conditions: 18 μM BAAA, 20 units of each isoform
# Procedure: BAAA activation was determined using UV/Vis spectroscopy. A 2 mM stock solution of BAAA was prepared in DMSO and activated with 2M HCL as described in the ALDEFLUOR™ Kit protocol ([…] Technologies Inc.). Immediately before measurement, BAAA was added to the reaction mixture described above to a final concentration of 18 μM. The solution was mixed vigorously, and the reaction proceeded at room temperature. UV/Vis absorbance spectra were taken from 300 to 500 nm every 30 seconds for 15 minutes. The rate of NADH produced per minute was calculated according to the absorbance at 340 nm (ε=[…] cm^−1). All measurements were performed in triplicate and reported as the average±standard deviation. 20 units of enzyme and 18 μM of BAAA were necessary to detect a significant increase in absorbance at 340 nm for the ALDH1A1 isoform.
# [1] = Photophysical properties (absorbance, emission, extinction coefficient, quantum yield); format: physicochemical; conditions: Probes 1-8
# ALDH1A1 [2] = target: T1, ALDH1A1; experiment: ALDH isoform selectivity of red probes: ALDH1A1; format: biochemical; conditions: Table 2
# Procedure: (§1) Each ALDH isoform was added to a 50 mM triethanolamine solution (pH 7.4) containing 2.0 mM NAD^+ and 100 μM substrate at room temperature. Benzaldehyde was the substrate for ALDH3A1. Propanal was the substrate for all other isoforms. ALDH isoform activity was determined by monitoring the rate of NADH production through the increase in absorbance at 340 nm (ε=6220 M^−1cm^−1). For these assays, 1 unit is defined as the amount of enzyme that catalyzes the conversion of […] per minute. For every combination of dye and enzyme, 2 μM dye was preincubated with 2.0 mM NAD^+ in 50 mM triethanolamine solution (pH 7.4). The reaction was initiated by addition of 1 unit of ALDH. Dyes were excited at 590 nm, and fluorescence was measured continuously at 610 nm.
# ALDH1A3 = target: T2, ALDH1A3; experiment: ALDH isoform selectivity of red probes: ALDH1A3; format: biochemical; conditions: Table 2
# Procedure: as §1
# ALDH1A1 [3] = target: T1, ALDH1A1; experiment: ALDH isoform selectivity of red probes: ALDH1A1; format: biochemical
# ALDH1A1 kinetics [4] = substrate: Cc1cc(C=O)c(F)c(F)c1C1=C2C=CC(=O)C=C2[Si](C)(C)c2cc(O)ccc21; experiment: ALDH1A1 kinetics; format: biochemical, human; conditions: other: ALDH1A1, identical conditions; pH 7.4
# Procedure: (§2) Solutions were prepared of 2.0 mM NAD+ and 0.1-2.5 μM AlDeSense or red-AlDeSense in 50 mM triethanolamine solution (pH 7.4). For every concentration, 1 unit of enzyme (as defined and determined in ALDH Isoform Selectivity) was added. Fluorescence was monitored for 30 seconds to determine V0. AlDeSense was excited at 490 nm and monitored at 510 nm. Red-AlDeSense was excited at 590 nm and monitored at 610 nm. Each condition was performed in triplicate. Protein concentration was determined using the Pierce™ BCA Protein Assay Kit. Data was analyzed using Microsoft Excel.
# ALDH1A1 kinetics [5] = substrate: Cc1cc(C=O)ccc1-c1c2cc(F)c(=O)cc-2oc2cc(O)c(F)cc12; experiment: ALDH1A1 kinetics; format: biochemical, human; conditions: other: ALDH1A1, identical conditions; pH 7.4
# Procedure: as §2
molecule,measurement,setting,value
"Cc1cc(C)n2c1C=C1C=CC(CCC(=O)NCC=O)=[N+]1[B-]2(F)F [BAAA, BODIPY-aminoacetaldehyde]",reactivity with ALDH isoforms,ALDH isoforms,react with a variety of isoforms
"C[Si]1(C)C2=CC(=O)C=CC2=C(c2ccc(C=O)cc2C(F)(F)F)c2ccc(O)cc21 [Probe 3, 4-(7-Hydroxy-5,5-dimethyl-3-oxo-3,5-dihydrodibenzo[b, e]silin-10-yl)-3-(trifluoromethyl)benzaldehyde]",Quantum Yield,[1],0.25
same,Enzyme Activity 1A1,ALDH1A1 [2],Medium
same,Enzymatic Turn On,"ALDH1A1 [2]; ALDH1A1, 2 μM dye",2.7
same,Enzyme Activity 1A3,ALDH1A3,Low
same,enzyme kinetics with ALDH1A1,ALDH1A1 [3],slow enzyme kinetics
B1,kcat/Km,ALDH1A1 kinetics [4],132000 M⁻¹ s⁻¹
same,kcat/Km,ALDH1A1 kinetics [5],57700 M⁻¹ s⁻¹
